Assays:
Type in all cases: in vivo
[1] = test system: barnyardgrass (Echinochloa crus-galli); experiment: Test A greenhouse herbicide test, pre- and postemergence
Method in brief: (§1)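 Visual injury ratings, 0 (no effect) to 100 (complete control), versus untreated plants after roughly 10 d in a greenhouse. Compounds, formulated in a surfactant-containing non-phytotoxic solvent, were sprayed on loam–sand soil after sowing (pre) or on one- to two-leaf plants 2–10 cm tall (post).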

corn (Zea mays) = experiment: as above; conditions: Postemergence
Method in brief: as §1

[2] = test system: foxtail, giant (giant foxtail, Setaria faberii); experiment: as above
Method in brief: as §1

kochia (Kochia scoparia) = experiment: as above
Method in brief: as §1

[3] = test system: pigweed (Amaranthus retroflexus); experiment: as above
Method in brief: as §1

[4] = test system: ragweed (common ragweed, Ambrosia elatior); experiment: as above
Method in brief: as §1

[5] = test system: ryegrass, Italian (Italian ryegrass, Lolium multiflorum); experiment: as above
Method in brief: as §1

[6] = test system: wheat (Triticum aestivum); experiment: as above; conditions: Postemergence
Method in brief: as §1

[7] = test system: blackgrass (Alopecurus myosuroides); experiment: Test A greenhouse herbicide test, postemergence
Method in brief: (§2)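 Scores are visual injury ratings from 0 (no effect) to 100 (complete control) versus untreated plants, taken roughly 10 d after treatment in the greenhouse. Treatment was postemergence, on one- to two-leaf plants 2–10 cm high growing in a loam soil/sand mix.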

[8] = test system: galium (catchweed bedstraw, Galium aparine); experiment: Test A greenhouse herbicide test, postemergence
Method in brief: as §2

[9] = test system: barnyardgrass (Echinochloa crus-galli); experiment: Test B flooded paddy test; conditions: 250 g ai/ha, Flood; visual rating on scale of 0 to 100 where 0 is no effect and 100 is complete control; 13 to 15 d after treatment
Method in brief: (§3)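 Ratings use a 0-100 visual scale, where 100 is complete control, and compare treated plants with controls after 13 to 15 d of greenhouse growth. Compound went straight into paddy water kept 3 cm over the soil surface, applied to seedlings at the 2-leaf stage.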

[10] = test system: ducksalad (Heteranthera limosa); experiment: Test B flooded paddy test; conditions: 250 g ai/ha, Flood; visual rating on scale of 0 to 100 where 0 is no effect and 100 is complete control; 13 to 15 d after treatment
Method in brief: as §3

rice (Oryza sativa) = experiment: Test B flooded paddy test; conditions: 250 g ai/ha, Flood; visual rating on scale of 0 to 100 where 0 is no effect and 100 is complete control; 13 to 15 d after treatment
Method in brief: as §3

[11] = test system: sedge, umbrella (small-flower umbrella sedge, Cyperus difformis); experiment: Test B flooded paddy test; conditions: 250 g ai/ha, Flood; visual rating on scale of 0 to 100 where 0 is no effect and 100 is complete control; 13 to 15 d after treatment
Method in brief: as §3

[12] = Postemergence, 125 g ai/ha, 0 to 100 scale, 0 no effect, 100 complete control
[13] = Postemergence, 500 g ai/ha, visual rating after approx. 10 d, 0 to 100 scale (0 no effect, 100 complete control)
[14] = Preemergence, 125 g ai/ha, visual injury rating, 0 to 100 scale (0 no effect, 100 complete control), approx. 10 d
[15] = Preemergence, 500 g ai/ha, 0 to 100 scale where 0 is no effect and 100 is complete control
[16] = 125 g ai/ha, 0 to 100 scale, 0 no effect, 100 complete control
[17] = 500 g ai/ha, visual rating after approx. 10 d, 0 to 100 scale (0 no effect, 100 complete control)

Row | SMILES | Plant response rating, Barnyardgrass [1, 12] | Plant response rating, Barnyardgrass [1, 13] | Plant response rating, Barnyardgrass [1, 14] | Plant response rating, Barnyardgrass [1, 15] | Plant response rating, Corn (corn (Zea mays); [16]) | Plant response rating, Corn (corn (Zea mays); [17]) | Plant response rating, Foxtail, Giant [2, 12] | Plant response rating, Foxtail, Giant [2, 13] | Plant response rating, Foxtail, Giant [2, 14] | Plant response rating, Foxtail, Giant [2, 15] | Plant response rating, Kochia (kochia (Kochia scoparia); [12]) | Plant response rating, Kochia (kochia (Kochia scoparia); [13]) | Plant response rating, Kochia (kochia (Kochia scoparia); [14]) | Plant response rating, Kochia (kochia (Kochia scoparia); [15]) | Plant response rating, Pigweed [3, 12] | Plant response rating, Pigweed [3, 13] | Plant response rating, Pigweed [3, 14] | Plant response rating, Pigweed [3, 15] | Plant response rating, Ragweed [4, 12] | Plant response rating, Ragweed [4, 13] | further results
1 | Cc1nn(C)c(=O)c(-c2c(C)sc3ccccc23)c1OC(=O)N1CCOCC1 [Compound 170] | 0 | 10 | 0 | 0 | 0 | 0 | 0 | 10 | 0 | 0 | 0 | 70 | 0 | 0 | 70 | 80 | 30 | 100 | 40 | 80 | Plant response rating, Ragweed [4, 14]: 0; Plant response rating, Ragweed [4, 15]: 20; Plant response rating, Ryegrass, Italian [5, 12]: 0; Plant response rating, Ryegrass, Italian [5, 13]: 50; Plant response rating, Ryegrass, Italian [5, 14]: 0; Plant response rating, Ryegrass, Italian [5, 15]: 40; Plant response rating, Wheat [6, 16]: 0; Plant response rating, Wheat [6, 17]: 0; Plant response rating, Blackgrass [7, 16]: 0; Plant response rating, Blackgrass [7, 17]: 10; Plant response rating, Galium [8, 16]: 40; Plant response rating, Galium [8, 17]: 80; Plant response rating, Barnyardgrass [9]: 0; Plant response rating, Ducksalad [10]: 0; Plant response rating, Rice (rice (Oryza sativa)): 0; Plant response rating, Sedge, Umbrella [11]: 60
2 | COC(=O)Cn1nc(C)c(O)c(-c2cccc3ccccc23)c1=O [Compound 172] | 40 | 70 | 20 | 50 | 0 | 0 | 40 | 80 | 60 | 90 | 0 | 20 | 0 | 0 | 0 | 30 | 0 | 0 | 0 | 0 | Plant response rating, Ragweed [4, 14]: 0; Plant response rating, Ragweed [4, 15]: 0; Plant response rating, Ryegrass, Italian [5, 12]: 20; Plant response rating, Ryegrass, Italian [5, 13]: 60; Plant response rating, Ryegrass, Italian [5, 14]: 0; Plant response rating, Ryegrass, Italian [5, 15]: 20; Plant response rating, Wheat [6, 16]: 20; Plant response rating, Wheat [6, 17]: 20; Plant response rating, Blackgrass [7, 16]: 20; Plant response rating, Blackgrass [7, 17]: 30; Plant response rating, Galium [8, 16]: 20; Plant response rating, Galium [8, 17]: 40; Plant response rating, Barnyardgrass [9]: 0; Plant response rating, Ducksalad [10]: 0; Plant response rating, Rice (rice (Oryza sativa)): 0; Plant response rating, Sedge, Umbrella [11]: 0
3 | Cc1n[nH]c(=O)c(-c2cccc3ccccc23)c1OC(F)F [Compound 175] | 0 | 0 | 0 | 0 | 0 | 20 | 0 | 0 | 0 | 0 | 0 | 0 | 0 | 20 | 0 | 0 | 0 | 60 | 0 | 0 | Plant response rating, Ragweed [4, 14]: 0; Plant response rating, Ragweed [4, 15]: 20; Plant response rating, Ryegrass, Italian [5, 12]: 20; Plant response rating, Ryegrass, Italian [5, 13]: 30; Plant response rating, Ryegrass, Italian [5, 14]: 20; Plant response rating, Ryegrass, Italian [5, 15]: 20; Plant response rating, Wheat [6, 16]: 0; Plant response rating, Wheat [6, 17]: 20; Plant response rating, Blackgrass [7, 16]: 0; Plant response rating, Blackgrass [7, 17]: 20; Plant response rating, Galium [8, 16]: 0; Plant response rating, Galium [8, 17]: 0; Plant response rating, Barnyardgrass [9]: 0; Plant response rating, Ducksalad [10]: 0; Plant response rating, Rice (rice (Oryza sativa)): 0; Plant response rating, Sedge, Umbrella [11]: 0

— US10597388B2, “Pyridazinone herbicides” (FMC CORPORATION, priority 2014, dated 2020)
